Data on two molecules can be found in PMC10842878 (Peptides, 2023).

The conditions of series [1]: H2O; cited from earlier work.
The format of series [2] is physicochemical. The following applies: 150 μM peptide, 50 mM sodium phosphate buffer pH 7, 37°C, 2 weeks.

Entries after “also recorded” stand apart in the source; their conditions may differ.

With `C/C1=C2/[N-]C([C@H](CC(N)=O)[C@@]2(C)CCC(=O)NCC(C)O)[C@]2(C)N=C(/C(C)=C3N=C(/C=C4N=C1[C@@H](CCC(N)=O)C\4(C)C)[C@@H](CCC(N)=O)[C@]\3(C)CC(N)=O)[C@@H](CCC(N)=O)[C@]2(C)CC(N)=O.[C-]#N.[C-]#N.[Co]` (some centres unmarked) [Cbi, dicyanocobinamide], the Water solubility in series [1] is 400 mg/mL.
In the case of “HSQGTFTSDYSKYLDSrRAQDFVQWLMNTZ [compound 7]”, the “Chemical stability (% of original concentration retained in solution)” value in series [2] is given as “highest chemical stability; also recorded: highest % concentration retained”.
